# Assay results taken from ChEMBL document CHEMBL5625206, “Design, synthesis, and evaluation of novel pleuromutilin aryl acrylate derivatives as promising broad-spectrum antibiotics especially for combatting multi-drug resistant gram-negative bacteria” (Eur J Med Chem, 2023).
# Experiments:
# [1] = test system: Staphylococcus epidermidis; test: Antibacterial activity against Staphylococcus epidermidis ATCC 12228 assessed as bacterial growth inhibition incubated for 24 hrs by CLSI based broth microdilution method; assay type: functional
# Staphylococcus aureus [2] = test: Antibacterial activity against methicillin-resistant Staphylococcus aureus ATCC 33591 assessed as bacterial growth inhibition incubated for 24 hrs by CLSI based broth microdilution method; assay type: functional
# Acinetobacter baumannii [3] = test: Antibacterial activity against Acinetobacter baumannii ATCC 19606 assessed as bacterial growth inhibition incubated for 24 hrs by CLSI based broth microdilution method; assay type: functional
# Escherichia coli = test: Antibacterial activity against Escherichia coli ATCC 25922 assessed as bacterial growth inhibition incubated for 24 hrs by CLSI based broth microdilution method; assay type: functional
# Staphylococcus aureus [4] = test: Antibacterial activity against Staphylococcus aureus ATCC 25923 assessed as bacterial growth inhibition incubated for 24 hrs by CLSI based broth microdilution method; assay type: functional
# Staphylococcus aureus [5] = test: Antibacterial activity against Staphylococcus aureus ATCC 29213 assessed as bacterial growth inhibition incubated for 24 hrs by CLSI based broth microdilution method; assay type: functional
# Acinetobacter baumannii [6] = test: Antibacterial activity against carbapenem-resistant Acinetobacter baumannii 882 clinical isolate assessed as bacterial growth inhibition incubated for 24 hrs by CLSI based broth microdilution method; assay type: functional
# Staphylococcus aureus [7] = test: Antibacterial activity against methicillin-resistant Staphylococcus aureus 575 clinical isolate assessed as bacterial growth inhibition incubated for 24 hrs by CLSI based broth microdilution method; assay type: functional
# Staphylococcus aureus [8] = test: Antibacterial activity against methicillin-resistant Staphylococcus aureus 171 clinical isolate assessed as bacterial growth inhibition incubated for 24 hrs by CLSI based broth microdilution method; assay type: functional
# [9] = Cytotoxicity against human HepG2 cells incubated for 24 hrs by CCK8 assay; assay type: toxicity, cell-based
# [10] = Cytotoxicity against HEK293 cells incubated for 24 hrs by CCK8 assay; assay type: toxicity, cell-based; conditions: human
# Enterococcus = test: Antibacterial activity against vancomycin-resistant Enterococcus 80 clinical isolate assessed as bacterial growth inhibition incubated for 24 hrs by CLSI based broth microdilution method; assay type: functional
# Klebsiella pneumoniae = test: Antibacterial activity against multidrug-resistant Klebsiella pneumoniae 893 clinical isolate assessed as bacterial growth inhibition incubated for 24 hrs by CLSI based broth microdilution method; assay type: functional
# Pseudomonas aeruginosa = test: Antibacterial activity against multidrug-resistant Pseudomonas aeruginosa 126 clinical isolate assessed as bacterial growth inhibition incubated for 24 hrs by CLSI based broth microdilution method; assay type: functional
# [11] = Cytotoxicity against human A549 cells incubated for 24 hrs by CCK8 assay; assay type: toxicity, cell-based
Structure (SMILES),MIC [1] [µg/mL],MIC (Staphylococcus aureus [2]) [µg/mL],MIC (Acinetobacter baumannii [3]) [µg/mL],MIC (Escherichia coli) [µg/mL],MIC (Staphylococcus aureus [4]) [µg/mL],MIC (Staphylococcus aureus [5]) [µg/mL],MIC (Acinetobacter baumannii [6]) [µg/mL],MIC (Staphylococcus aureus [7]) [µg/mL],MIC (Staphylococcus aureus [8]) [µg/mL],CC50 at 24 h [9] [µM],CC50 at 24 h [10] [µM],MIC (Enterococcus) [µg/mL],MIC (Klebsiella pneumoniae) [µg/mL],MIC (Pseudomonas aeruginosa) [µg/mL],CC50 at 24 h [11] [µM]
C=C[C@]1(C)C[C@@H](OC(=O)COC(=O)/C=C/c2ccc3ccccc3c2)[C@]2(C)[C@H](C)CC[C@]3(CCC(=O)[C@H]32)[C@@H](C)[C@@H]1O,32,128,> 128,> 128,16,32,–,–,–,–,–,–,–,–,–
C=C[C@]1(C)C[C@@H](OC(=O)COC(=O)/C=C/c2ccc(F)c(F)c2F)[C@]2(C)[C@H](C)CC[C@]3(CCC(=O)[C@H]32)[C@@H](C)[C@@H]1O,16,128,128,64,32,64,–,–,–,–,–,–,–,–,–
C=C[C@]1(C)C[C@@H](OC(=O)COC(=O)/C=C/c2ccc([N+](=O)[O-])cc2)[C@]2(C)[C@H](C)CC[C@]3(CCC(=O)[C@H]32)[C@@H](C)[C@@H]1O,2,4,64,32,8,2,128,16,16,> 200,> 200,8,128,64,> 200
C=C[C@]1(C)C[C@@H](OC(=O)COC(=O)/C=C/c2ccsc2)[C@]2(C)[C@H](C)CC[C@]3(CCC(=O)[C@H]32)[C@@H](C)[C@@H]1O,16,64,32,32,32,8,–,–,–,–,–,–,–,–,–
C=C[C@]1(C)C[C@@H](OC(=O)COC(=O)/C=C/c2ccncc2)[C@]2(C)[C@H](C)CC[C@]3(CCC(=O)[C@H]32)[C@@H](C)[C@@H]1O,4,32,64,64,8,16,–,–,–,–,–,–,–,–,–
C=C[C@]1(C)C[C@@H](OC(=O)COC(=O)/C=C/c2cc(Br)ccc2F)[C@]2(C)[C@H](C)CC[C@]3(CCC(=O)[C@H]32)[C@@H](C)[C@@H]1O,64,64,128,64,16,32,–,–,–,–,–,–,–,–,–
C=C[C@]1(C)C[C@@H](OC(=O)COC(=O)/C=C/c2ccc(OCc3ccccc3)cc2)[C@]2(C)[C@H](C)CC[C@]3(CCC(=O)[C@H]32)[C@@H](C)[C@@H]1O,32,128,64,> 128,16,32,–,–,–,–,–,–,–,–,–
C=C[C@]1(C)C[C@@H](OC(=O)COC(=O)/C=C/c2cccc(C(F)(F)F)c2)[C@]2(C)[C@H](C)CC[C@]3(CCC(=O)[C@H]32)[C@@H](C)[C@@H]1O,64,256,128,64,32,64,–,–,–,–,–,–,–,–,–
C=C[C@]1(C)C[C@@H](OC(=O)COC(=O)/C=C/c2ccc(F)cc2)[C@]2(C)[C@H](C)CC[C@]3(CCC(=O)[C@H]32)[C@@H](C)[C@@H]1O,32,32,128,128,16,32,–,–,–,–,–,–,–,–,–
C=C[C@]1(C)C[C@@H](OC(=O)COC(=O)/C=C/c2ccccc2C(F)(F)F)[C@]2(C)[C@H](C)CC[C@]3(CCC(=O)[C@H]32)[C@@H](C)[C@@H]1O,64,128,> 128,> 128,32,64,–,–,–,–,–,–,–,–,–
C=C[C@]1(C)C[C@@H](OC(=O)COC(=O)/C=C/c2ccccc2)[C@]2(C)[C@H](C)CC[C@]3(CCC(=O)[C@H]32)[C@@H](C)[C@@H]1O,16,32,> 128,128,4,16,–,–,–,–,–,–,–,–,–
C=C[C@]1(C)C[C@@H](OC(=O)COC(=O)/C=C/c2ccc(C#N)cc2)[C@]2(C)[C@H](C)CC[C@]3(CCC(=O)[C@H]32)[C@@H](C)[C@@H]1O,64,64,> 128,> 128,32,64,–,–,–,–,–,–,–,–,–
C=C[C@]1(C)C[C@@H](OC(=O)COC(=O)/C=C/c2ccc(C(F)(F)F)cc2)[C@]2(C)[C@H](C)CC[C@]3(CCC(=O)[C@H]32)[C@@H](C)[C@@H]1O,8,128,> 128,64,16,16,–,–,–,–,–,–,–,–,–
